Measurements from patent US12459891B2, “1-[1-(4-benzyloxy-3,5-difluoro-benzoyl)-4-fluoro-pyrrolidine-2-carbonyl]-pyrrolidine-2-carbonitrile” (ACCURE THERAPEUTICS, S.L., priority 2020, dated 2025).

System: Caco-2 cells
Assay: Caco-2 permeability assay (apical to basal)
Assay type: in vitro ADME, human
Conditions: 50 μM, 2 hours at 37° C.
Excerpt: Caco-2 cells are widely used as an in vitro model for prediciting human drug absorption. The Caco-2 cell line is derived from human colorectal carcinoma, and when cultured, the cells spontaneously differentiate into monolayers of polarized enterocytes.
Experiments were done using the CacoReay permeability kit (ReadyCell, Barcelona, Spain).
On the same week of the reception of the kit, the shipping medium of the cells was liquefied according to user's manual provided with the kit, after which the shipping medium was replaced with fresh Dulbecco's Modified Eagle's Medium (DMEM, low-glucose).
Three days later, equivalent to day 20 of cell culture, the quality of the barrier system and the presence of tight junctions between the cells was checked by measuring the trans endothelial electrical resistance (TEER) of the cell barrier. […]
For the transport experiments (apical to basal), the cells were incubated with the solutions containing the compounds for 2 hours at 37° C. Afterwards, the content of the compartments was recovered and analyzed by HPLC (Column C18 Sunfire 100 mm×4.6 mm, […], 100 Å, Waters; Flow rate 1 mL/min; Gradient 0-100% B in 8 min A=0.045% Trifluoracetic acid in H2O and B 0.036% Trifluoracetic acid in acetonitrile, detection at 220 nm). […]
In the Caco-2 permeability assay, the percentage of transport (T %) for the compounds was calculated according to the following equation: […]

% T (percentage of transport), Caco-2 | SMILES
5.7% | COc1cc(C(=O)N2CC(F)(F)C[C@H]2C(=O)N2CCC[C@H]2C#N)cc(OC)c1OCc1ccccc1 [Comp Ex. 3, (S)-1-((2S)-1-(4-(benzyloxy)-3,5-dimethoxybenzoyl)-4,4-difluoropyrrolidine-2-carbonyl)pyrrolidine-2-carbonitrile]
45% | N#C[C@@H]1CCCN1C(=O)[C@@H]1C[C@@H](F)CN1C(=O)c1cc(F)c(OCc2ccccc2)c(F)c1 [Example 1, (S)-1-((2S,4R)-1-(4-(benzyloxy)-3,5-difluorobenzoyl)-4-fluoropyrrolidine-2-carbonyl)pyrrolidine-2-carbonitrile]
